US10174037B2, “Dihydropyrazolopyrimidinone compounds as PDE2 inhibitors” (Merck Sharp & Dohme Corp., priority 2015, dated 2019)

Columns and labels:
[1] = target: Rhesus PDE2A3 (Macaca mulatta, UniProt B3VTJ2); experiment: PDE2 fluorescence polarization (IMAP FP) assay, rhesus PDE2A3; type: biochemical, rhesus macaque; details: Lab B, read-out: Rhesus PDE2 Ki (nM) Lab B
[2] = target: human PDE2A1 (Homo sapiens (Human), UniProt O00408); experiment: PDE selectivity IMAP FP assay, human PDE2A1; type: biochemical; details: Human PDE2; Lab B; read-out: Human PDE2 Ki (nM) Lab B
How it was run: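 IMAP fluorescence polarization assay; PDE2 substrate 50 nM FAM-cAMP containing 1000 nM cGMP, enzyme diluted for 20% substrate conversion, in 10 mM Tris HCl pH 7.2, 10 mM MgCl2, 1 mM DTT. Reaction 60 min at room temperature, stopped with IMAP binding solution; polarization read after 1 h. Ki reported.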

Chain of human PDE2A1 (O00408 other isoform, or with tags, fused parts or gaps): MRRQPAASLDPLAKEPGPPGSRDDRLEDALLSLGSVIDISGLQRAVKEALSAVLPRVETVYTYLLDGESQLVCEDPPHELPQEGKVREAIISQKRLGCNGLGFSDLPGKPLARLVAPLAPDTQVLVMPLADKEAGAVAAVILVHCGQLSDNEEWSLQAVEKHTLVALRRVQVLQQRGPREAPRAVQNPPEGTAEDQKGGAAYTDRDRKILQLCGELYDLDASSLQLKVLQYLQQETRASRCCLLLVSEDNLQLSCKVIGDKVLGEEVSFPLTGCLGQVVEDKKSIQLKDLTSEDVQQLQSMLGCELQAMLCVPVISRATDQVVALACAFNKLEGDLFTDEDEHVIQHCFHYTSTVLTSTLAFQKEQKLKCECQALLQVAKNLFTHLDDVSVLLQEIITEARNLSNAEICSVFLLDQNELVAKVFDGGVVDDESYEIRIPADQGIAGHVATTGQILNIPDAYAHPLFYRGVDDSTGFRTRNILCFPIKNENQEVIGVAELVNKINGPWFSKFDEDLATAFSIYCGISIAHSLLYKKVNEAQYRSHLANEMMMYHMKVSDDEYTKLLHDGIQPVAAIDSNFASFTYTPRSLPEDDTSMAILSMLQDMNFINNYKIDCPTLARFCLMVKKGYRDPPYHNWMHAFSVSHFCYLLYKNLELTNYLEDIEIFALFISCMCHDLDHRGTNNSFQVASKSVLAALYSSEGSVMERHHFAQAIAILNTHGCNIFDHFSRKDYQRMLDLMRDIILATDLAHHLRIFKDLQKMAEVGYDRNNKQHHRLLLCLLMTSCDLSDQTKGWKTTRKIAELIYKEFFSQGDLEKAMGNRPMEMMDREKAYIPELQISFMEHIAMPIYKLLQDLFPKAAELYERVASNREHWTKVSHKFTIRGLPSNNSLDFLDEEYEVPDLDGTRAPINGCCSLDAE
Chain of Rhesus PDE2A3 (B3VTJ2 1-941): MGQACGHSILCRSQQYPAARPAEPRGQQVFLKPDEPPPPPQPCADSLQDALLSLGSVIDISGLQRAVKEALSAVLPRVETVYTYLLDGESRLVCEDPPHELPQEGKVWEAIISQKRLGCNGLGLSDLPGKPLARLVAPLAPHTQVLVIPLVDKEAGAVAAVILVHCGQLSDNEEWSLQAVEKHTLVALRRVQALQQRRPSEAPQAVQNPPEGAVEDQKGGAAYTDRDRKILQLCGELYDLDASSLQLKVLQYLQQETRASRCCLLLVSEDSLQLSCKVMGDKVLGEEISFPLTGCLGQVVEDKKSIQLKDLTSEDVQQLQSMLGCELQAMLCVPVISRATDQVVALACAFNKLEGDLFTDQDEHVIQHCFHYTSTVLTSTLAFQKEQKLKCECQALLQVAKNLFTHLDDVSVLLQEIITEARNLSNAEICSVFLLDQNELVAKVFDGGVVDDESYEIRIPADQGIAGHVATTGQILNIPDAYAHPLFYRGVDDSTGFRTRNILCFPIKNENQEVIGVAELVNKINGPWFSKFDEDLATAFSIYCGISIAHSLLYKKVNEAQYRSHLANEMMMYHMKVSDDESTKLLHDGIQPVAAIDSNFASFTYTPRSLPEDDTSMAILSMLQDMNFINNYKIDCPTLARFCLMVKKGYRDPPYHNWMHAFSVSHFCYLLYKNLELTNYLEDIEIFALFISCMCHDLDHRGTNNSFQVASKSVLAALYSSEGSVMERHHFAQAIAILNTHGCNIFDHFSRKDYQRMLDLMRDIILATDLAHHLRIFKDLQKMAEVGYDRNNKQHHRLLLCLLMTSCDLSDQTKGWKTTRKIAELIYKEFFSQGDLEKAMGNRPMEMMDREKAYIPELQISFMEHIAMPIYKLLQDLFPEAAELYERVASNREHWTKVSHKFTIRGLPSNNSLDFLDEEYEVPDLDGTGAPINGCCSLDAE

With CC(C)C(c1ccc(C(C)(F)F)cc1)n1nc(CO)c2c(=O)[nH]c(N(C)C)nc21 (single isomer, unassigned) [Example 139, (S)- or (R)-1-(1-(4-(1,1-Difluoroethyl)phenyl)-2-methylpropyl)-6-(dimethylamino)-3-(hydroxymethyl)-1H-pyrazolo[3,4-d]pyrimidin-4(5H)-one] the Ki [1] was 0.04 nM and the Ki [2] was 0.064 nM.
CN(C)c1nc2c(c(CO)nn2C(c2ccc(C(C)(F)F)cc2)C2CC2)c(=O)[nH]1 (single isomer, unassigned) [Example 140, (R)- or (S)-1-(Cyclopropyl(4-(1,1-difluoroethyl)phenyl)methyl)-6-(dimethylamino)-3-(hydroxymethyl)-1H-pyrazolo[3,4-d]pyrimidin-4(5H)-one] was tested, and the Ki [1] was 0.097 nM and the Ki [2] was 0.07 nM.
In the case of CN(C)c1nc2c(c(CO)nn2C(c2ccc(C(C)(F)F)cc2)C2CC2)c(=O)[nH]1 (single isomer, unassigned) [Example 141, (S)- or (R)-1-(Cyclopropyl(4-(1,1-difluoroethyl)phenyl)methyl)-6-(dimethylamino)-3-(hydroxymethyl)-1H-pyrazolo[3,4-d]pyrimidin-4(5H)-one], the Ki [1] is reported as 0.64 nM and the Ki [2] is reported as 0.56 nM.
Work on CC(C)C(c1ccc(C(F)(F)F)c(F)c1)n1nc(CO)c2c(=O)[nH]c(N(C)C)nc21 (single isomer, unassigned) [Example 142, (R)- or (S)-6-(Dimethylamino)-1-(1-(3-fluoro-4-(trifluoromethyl)phenyl)-2-methylpropyl)-3-(hydroxymethyl)-1H-pyrazolo[3,4-d]pyrimidin-4(5H)-one] yielded a Ki [1] of 0.29 nM and a Ki [2] of 0.19 nM.
CC(C)C(c1ccc(C(F)(F)F)c(F)c1)n1nc(CO)c2c(=O)[nH]c(N(C)C)nc21 (single isomer, unassigned) [Example 143, (S)- or (R)-6-(Dimethylamino)-1-(1-(3-fluoro-4-(trifluoromethyl)phenyl)-2-methylpropyl)-3-(hydroxymethyl)-1H-pyrazolo[3,4-d]pyrimidin-4(5H)-one] was tested, and the Ki [1] was 0.063 nM and the Ki [2] was 0.068 nM.
CCC(c1ccc(C(F)(F)F)c(F)c1)n1nc(CO)c2c(=O)[nH]c(N(C)C)nc21 (single isomer, unassigned) [Example 144, (R)- or (S)-6-(Dimethylamino)-1-(1-(3-fluoro-4-(trifluoromethyl)phenyl)propyl)-3-(hydroxymethyl)-1H-pyrazolo[3,4-d]pyrimidin-4(5H)-one] was tested, and the Ki [1] was 3.1 nM and the Ki [2] was 1.7 nM.
For CCC(c1ccc(C(F)(F)F)c(F)c1)n1nc(CO)c2c(=O)[nH]c(N(C)C)nc21 (single isomer, unassigned) [Example 145, (S)- or (R)-6-(Dimethylamino)-1-(1-(3-fluoro-4-(trifluoromethyl)phenyl)propyl)-3-(hydroxymethyl)-1H-pyrazolo[3,4-d]pyrimidin-4(5H)-one], the Ki [1] was 0.13 nM and the Ki [2] was 0.11 nM.
With CC(c1ccc(OC(F)(F)F)cc1)n1nc(CO)c2c(=O)[nH]c(N(C)C)nc21 (single isomer, unassigned) [Example 148, (R)- or (S)-6-(Dimethylamino)-3-(hydroxymethyl)-1-(1-(4-(trifluoromethoxy)phenyl)ethyl)-1H-pyrazolo[3,4-d]pyrimidin-4(5H)-one] the Ki [1] was 3.3 nM and the Ki [2] was 2.6 nM.
In the case of CC(c1ccc(OC(F)(F)F)cc1)n1nc(CO)c2c(=O)[nH]c(N(C)C)nc21 (single isomer, unassigned) [Example 149, (S)- or (R)-6-(Dimethylamino)-3-(hydroxymethyl)-1-(1-(4-(trifluoromethoxy)phenyl)ethyl)-1H-pyrazolo[3,4-d]pyrimidin-4(5H)-one], the Ki [1] is reported as 0.46 nM and the Ki [2] is reported as 0.51 nM.
In the case of CN(C)c1nc2c(c(CO)nn2C(c2ccc(C(F)(F)F)c(F)c2)C2CC2)c(=O)[nH]1 (single isomer, unassigned) [Example 150, (R)- or (S)-1-(Cyclopropyl(3-fluoro-4-(trifluoromelhyl)phenyl)methyl)-6-(dimethylamino)-3-(hydroxymethyl)-1H-pyrazolo[3,4-d]pyrimidin-4(5H)-one], the Ki [1] is reported as 0.12 nM and the Ki [2] is reported as 0.12 nM.
Work on CN(C)c1nc2c(c(CO)nn2C(c2ccc(C(F)(F)F)c(F)c2)C2CC2)c(=O)[nH]1 (single isomer, unassigned) [Example 151, (S)- or (R)-1-(Cyclopropyl(3-fluoro-4-(trifluoromethyl)phenyl)methyl)-6-(dimethylamino)-3-(hydroxymethyl)-1H-pyrazolo[3,4-d]pyrimidin-4(5H)-one] yielded a Ki [1] of 0.79 nM and a Ki [2] of 0.61 nM.
For CN(C)c1nc2c(c(CO)nn2C(c2ccc(C(F)F)c(F)c2)C2CC2)c(=O)[nH]1 (single isomer, unassigned) [Example 152, (R)- or (S)-1-(Cyclopropyl(4-(difluoromethyl)-3-fluorophenyl)methyl)-6-(dimethylamino)-3-(hydroxymethyl)-1H-pyrazolo[3,4-d]pyrimidin-4(5H)-one], the Ki [1] was 0.97 nM and the Ki [2] was 0.57 nM.
Molecule CC(C)C(c1ccc(C(F)(F)F)cc1)n1nc(CF)c2c(=O)[nH]c(N(C)C)nc21 (single isomer, unassigned) [Example 162] has a Ki [1] of 0.63 nM and a Ki [2] of 0.54 nM.
Work on CC(C)C(c1ccc(C(F)(F)F)cc1)n1nc(CF)c2c(=O)[nH]c(N(C)C)nc21 (single isomer, unassigned) [Example 163] yielded a Ki [1] of 0.07 nM and a Ki [2] of 0.056 nM.
CC(c1ccc(OC(F)(F)F)cc1)n1nc(CF)c2c(=O)[nH]c(N(C)C)nc21 (single isomer, unassigned) [Example 164, (R)- or (S)-6-(Dimethylammo)-3-(fluoromethyl)-1-(1-(4-(trifluoromethoxy)phenyl)ethyl)-1H-pyrazolo[3,4-d]pyrimidin-4(5H)-one] showed a Ki [1] of 2 nM and a Ki [2] of 1.7 nM.
For CC(c1ccc(OC(F)(F)F)cc1)n1nc(CF)c2c(=O)[nH]c(N(C)C)nc21 (single isomer, unassigned) [Example 165, (S)- or (R)-6-(Dimethylamino)-3-(fluoromethyl)-1-(1-(4-(trifluoromethoxy)phenyl)ethyl)-1H-pyrazolo[3,4-d]pyrimidin-4(5H)-one], the Ki [1] was 0.28 nM and the Ki [2] was 0.33 nM.
CC(c1ccc(OC(F)(F)F)c(F)c1)n1nc(CF)c2c(=O)[nH]c(N(C)C)nc21 (single isomer, unassigned) [Example 166, (R)- or (S)-6-(Dimethylamino)-1-(1-(3-fluoro-4-(trifluoromethoxy)phenyl)ethyl)-3-(fluoromethyl)-1H-pyrazolo[3,4-d]pyrimidin-4(5H)-one] gave a Ki [1] of 0.91 nM and a Ki [2] of 0.61 nM.
CC(c1ccc(OC(F)(F)F)c(F)c1)n1nc(CF)c2c(=O)[nH]c(N(C)C)nc21 (single isomer, unassigned) [Example 167, (S)- or (R)-6-(Dimethylamino)-1-(1-(3-fluoro-4-(trifluoromethoxy)phenyl)ethyl)-3-(fluoromethyl)-1H-pyrazolo[3,4-d]pyrimidin-4(5H)-one] gave a Ki [1] of 0.18 nM and a Ki [2] of 0.2 nM.
For CC(c1ccc(C(F)(F)F)c(F)c1)n1nc(CF)c2c(=O)[nH]c(N(C)C)nc21 (single isomer, unassigned) [Example 168, (R)- or (S)-6-(Dimethylamino)-1-(1-(3-fluoro-4-(trifluoromethyl)phenyl)ethyl)-3-(fluoromethyl)-1H-pyrazolo[3,4-d]pyrimidin-4(5H)-one], the Ki [1] was 8.1 nM and the Ki [2] was 5.3 nM.
CC(c1ccc(C(F)(F)F)c(F)c1)n1nc(CF)c2c(=O)[nH]c(N(C)C)nc21 (single isomer, unassigned) [Example 169, (S)- or (R)-6-(Dimethylamino)-1-(1-(3-fluoro-4-(trifluoromethyl)phenyl)ethyl)-3-(fluoromethyl)-1H-pyrazolo[3,4-d]pyrimidin-4(5H)-one] gave a Ki [1] of 0.2 nM and a Ki [2] of 0.099 nM.
Work on CC(c1ccc(C(C)(C)C)cc1)n1nc(CF)c2c(=O)[nH]c(N(C)C)nc21 (single isomer, unassigned) [Example 170, (R)- or (S)-1-(1-(4-tert-Butylphenyl(ethyl)-6-(dimethylamino)-3-(fluoromethyl)-1H-pyrazolo[3,4-d]pyrimidin-4(5H)-one] yielded a Ki [1] of 11 nM and a Ki [2] of 7.6 nM.
In the case of CC(c1ccc(C(C)(C)C)cc1)n1nc(CF)c2c(=O)[nH]c(N(C)C)nc21 (single isomer, unassigned) [Example 171, (S)- or (R)-1-(1-(4-tert-Butylphenyl)ethyl)-6-(dimethylamino)-3-(fluoromethyl)-1H-pyrazolo[3,4-d]pyrimidin-4(5H)-one], the Ki [1] is reported as 0.24 nM and the Ki [2] is reported as 0.2 nM.
For CCC(c1ccc(C(F)(F)F)cc1)n1nc(CF)c2c(=O)[nH]c(N(C)C)nc21 (single isomer, unassigned) [Example 173, (S)- or (R)-6-(Dimethylamino)-3-(fluoromethyl)-1-(1-(4-(trifluoromethyl)phenyl)propyl)-1H-pyrazolo[3,4-d]pyrimidin-4(5H)-one], the Ki [1] was 0.096 nM and the Ki [2] was 0.063 nM.
Molecule CC(C)c1ccc(C(C(C)C)n2nc(CF)c3c(=O)[nH]c(N(C)C)nc32)cc1 (single isomer, unassigned) [Example 176, (R)- or (S)-6-(Dimethylamino)-3-(fluoromethyl)-1-(1-(4-isopropylphenyl)-2-methylpropyl)-1H-pyrazolo[3,4-d]pyrimidin-4(5H)-one] has a Ki [1] of 0.28 nM and a Ki [2] of 0.23 nM.
CC(C)c1ccc(C(C(C)C)n2nc(CF)c3c(=O)[nH]c(N(C)C)nc32)cc1 (single isomer, unassigned) [Example 177, (S)- or (R)-6-(Dimethylamino)-3-(fluoromethyl)-1-(1-(4-isopropylphenyl)-2-methylpropyl)-1H-pyrazolo[3,4-d]pyrimidin-4(5H)-one] was tested, and the Ki [1] was 0.058 nM and the Ki [2] was 0.047 nM.
